Experiments:
[1] = brain to plasma ratio (rat); type: in vivo
Protocol: covered in Principles of Laboratory Animal Care (National Institutes of Health). All rats were fasted overnight prior to testing.
For determination of the brain over plasma ratio (Kp), compounds were formulated in 8% ethanol, 32% PEG400 and 60% DMSO (v/v/v) and administered as a single 0.2 mg/kg IV dose (1 mL/kg) to male, Sprague Dawley rats (n = 1) via injection into a surgically-implanted jugular vein catheter. At 15 min post dosing, blood sample was collected into chilled, K2EDTA anticoagulant-fortified tube and immediately placed on wet ice. The blood sample was then centrifuged (1700 rcf, 5 minutes, 4 °C) to obtain plasma sample. At the same post-administration time point, whole brain sample was obtained by rapid dissection, rinsed with PBS, and immediately frozen in individual tissue collection box (dry ice). All brain and plasma samples were stored at -80 °C until […]
Sample Analysis: Concentrations in plasma and brain homogenates were quantified by liquid chromatography tandem mass spectrometry (LC-MS/MS). Whole brains were homogenized in 3 mL of 70:30 IPA:water in a mini bead beater for 3 min, and centrifuged at 3,500 g for 5 min. 5 uL of the supernatant was diluted in 15 uL of blank plasma for quantification of the analytes. Plasma samples were centrifuged at 3,500 g for 5 min. […]
Plasma and brain tissue samples originating from in vivo studies were analyzed by electrospray ionization using an AB Sciex Q-TRAP 5500 (Foster City, CA) that was coupled to a Shimadzu LC-20AD pump (Columbia, MD) and a Leap Technologies CTC PAL auto-sampler (Carrboro, NC). […]
min, with an isocratic hold for 0.5 min, before transitioning to 10% B over 0.05 min. […] All data were analyzed using AB Sciex Analyst 1.5.1 software.
Brain plasma concentration ratio (Kp) was calculated by dividing brain concentration by plasma concentration for each animal. Unbound brain to unbound plasma concentration ratio (Kp,uu) is calculated using the following formula: Kp,uu = (Brain ng/g x brain fu)/(plasma ng/ml x plasma fu). […]

Adrenergic α1B = Adrenergic α1B (Homo sapiens, UniProt P35368); test: Eurofins radioligand binding
Adrenergic α1B, sequence (P35368 whole entry): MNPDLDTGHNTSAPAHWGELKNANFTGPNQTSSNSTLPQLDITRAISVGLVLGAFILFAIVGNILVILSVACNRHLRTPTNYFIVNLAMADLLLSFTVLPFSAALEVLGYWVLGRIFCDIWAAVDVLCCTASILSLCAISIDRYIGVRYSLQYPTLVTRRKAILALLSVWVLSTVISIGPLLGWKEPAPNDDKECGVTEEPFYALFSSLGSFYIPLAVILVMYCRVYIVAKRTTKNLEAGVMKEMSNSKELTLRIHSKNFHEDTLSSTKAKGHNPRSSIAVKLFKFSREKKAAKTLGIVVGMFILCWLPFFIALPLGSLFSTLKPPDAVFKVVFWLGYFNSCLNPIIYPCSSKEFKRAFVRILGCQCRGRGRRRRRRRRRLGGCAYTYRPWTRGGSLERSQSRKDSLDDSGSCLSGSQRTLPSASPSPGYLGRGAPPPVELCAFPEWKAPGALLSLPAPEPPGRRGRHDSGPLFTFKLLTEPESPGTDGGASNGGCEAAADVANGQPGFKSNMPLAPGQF

Thyroid Hormone = test: Eurofins radioligand binding; settings: Rat
Glutamate, Kainate = test: Eurofins radioligand binding; settings: Rat
[2] = tested on: GABAA, Flunitrazepam, Central; test: Eurofins radioligand binding; settings: Rat
Dopamine D4.2 = Dopamine D4.2 (Homo sapiens, UniProt P21917, DEL265-296); test: Eurofins radioligand binding
Dopamine D4.2, sequence (P21917 with tags, fused parts or gaps DEL265-296): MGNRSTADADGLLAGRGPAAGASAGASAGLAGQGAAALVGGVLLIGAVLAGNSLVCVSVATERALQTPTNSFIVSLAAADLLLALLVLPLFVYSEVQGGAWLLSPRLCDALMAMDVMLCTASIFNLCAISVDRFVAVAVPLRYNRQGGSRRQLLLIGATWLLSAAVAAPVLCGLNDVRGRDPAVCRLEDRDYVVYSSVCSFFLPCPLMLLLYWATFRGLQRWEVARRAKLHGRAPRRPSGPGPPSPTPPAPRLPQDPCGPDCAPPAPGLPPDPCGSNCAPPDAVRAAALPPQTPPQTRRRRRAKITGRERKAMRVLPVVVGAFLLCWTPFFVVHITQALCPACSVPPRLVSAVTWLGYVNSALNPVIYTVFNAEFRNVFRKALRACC

[3] = IV/PO pharmacokinetics (NHP); type: in vivo; settings: NHP (cyno)
[4] = plasma protein binding, equilibrium dialysis (dog); type: in vitro ADME; settings: pH 7.4, dog (d), read-out: fu,plasma
Protocol: Plasma protein binding and Brain homogenate binding: Determination of fraction unbound (f u) in plasma was conducted in vitro via equilibrium dialysis using HTDialysis (HTD) membrane plates. The top half of the plate was filled with 100 uL of Dubelco’s Phosphate Buffered Saline, pH 7.4 (DPBS). Compounds were diluted into plasma from each species (5 µM final concentration), which was aliquoted in triplicate to the ‘bottom half’ of the prepared HTD plate wells. The HTD plate was sealed and incubated for 6 hours at 37 °C. Following incubation, each well (both top and bottom halves) were transferred (20 µL) to the corresponding wells of a 96-shallow-well (V-bottom) plate. […]
The unbound fraction (f u) was calculated following the equation below, and mean values for each species were calculated from 3 replicates.
A similar approach was used to determine the degree of brain homogenate binding, which employed the same methodology and procedure with the following modifications: 1) a final compound concentration of 1 μM was used, 2) naïve rat brains were homogenized in DPBS (1:3 composition of brain: DPBS, w/w) using a Mini-Bead Beater™ machine in order to obtain brain homogenate, which was then treated in the same manner as the plasma samples in the previously described plasma protein binding assay. Fraction unbound for both plasma and brain samples was determined using Equation 4. […]

Estrogen ERα = Estrogen ERα (Homo sapiens, UniProt P03372); test: Eurofins radioligand binding
Estrogen ERα, sequence (P03372 whole entry): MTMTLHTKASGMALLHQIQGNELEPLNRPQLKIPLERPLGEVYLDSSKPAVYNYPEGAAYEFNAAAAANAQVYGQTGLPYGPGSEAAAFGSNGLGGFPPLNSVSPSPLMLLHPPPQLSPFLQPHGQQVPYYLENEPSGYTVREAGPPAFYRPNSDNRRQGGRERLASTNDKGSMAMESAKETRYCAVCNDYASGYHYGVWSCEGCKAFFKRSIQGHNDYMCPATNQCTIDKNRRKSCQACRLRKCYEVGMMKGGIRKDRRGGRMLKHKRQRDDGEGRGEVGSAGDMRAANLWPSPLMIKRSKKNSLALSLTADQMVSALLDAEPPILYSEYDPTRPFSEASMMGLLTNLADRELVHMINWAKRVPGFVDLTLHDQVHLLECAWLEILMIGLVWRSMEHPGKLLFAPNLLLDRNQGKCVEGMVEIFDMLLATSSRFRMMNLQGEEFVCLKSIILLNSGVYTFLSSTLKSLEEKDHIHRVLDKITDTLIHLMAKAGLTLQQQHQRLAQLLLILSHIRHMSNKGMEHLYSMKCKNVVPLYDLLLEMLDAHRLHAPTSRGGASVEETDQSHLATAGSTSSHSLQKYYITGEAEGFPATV

[5] = cynomolgus monkey, plasma, 3 mg/kg po

Q: What does the source list for Cn1cc2c(-c3cc(F)c(CN4Cc5ncccc5C4=O)c(F)c3)ccc(C(C)(C)O)c2n1 [compound 7]?
A: Kp ([1]; brain:plasma): 1.08; Kp at 15 min ([1]; male, Sprague Dawley, brain and plasma, intravenous, 0.2 mg/kg, brain:plasma): 1.07; Kp uu at 15 min ([1]; male, Sprague Dawley, brain and plasma, intravenous, 0.2 mg/kg, unbound brain:unbound plasma): 1.27; inhibition at 10 µM (Adrenergic α1B): 8%; % Inhibition at 10 µM (Thyroid Hormone): -1%; % Inhibition at 10 µM (Glutamate, Kainate): -2%; % Inhibition at 10 µM [2]: 4%; inhibition at 10 µM (Dopamine D4.2): -5%; F (%) po ([3]; 3 mg/kg po): 76%; clearance ([3]; cynomolgus monkey, plasma, 1 mg/kg iv, read-out: CLp): 7.3 mL/min/kg; half-life ([3]; cynomolgus monkey, plasma, 1 mg/kg iv, read-out: Elimination t1/2 (converted)): 4.9 h; Vd ([3]; cynomolgus monkey, plasma, 1 mg/kg iv, read-out: Vss): 1.5 L/kg; AUC [3, 5]: 12.4 µM·h; Cmax [3, 5]: 1100 nM; Tmax [3, 5]: 4.7 h; fraction unbound at 6 h, 5 µM [4]: 0.117; inhibition at 10 µM (Estrogen ERα): 12%
